Reference: ChEMBL document CHEMBL6134844, “Development of Next-Generation Antimalarial Acridones with Radical Cure Potential” (J Med Chem, 2025)
Activity calls are given as the source filed them. The rule behind the calls is not given here.

Legend:
[1] = (§1) Selectivity index, ratio of CC50 for Macaca mulatta hepatocytes to IC50 for antiplasmodial activity against schizont Plasmodium cynomolgi B strain infected in Macaca mulatta hepatocytes incubated with sporozoite containing salivary gland homogenate obtained from dissected Anopheles dirus mosquitoes (infected with Plasmodium cynomolgi B strain) treatment started on day 4 post infection and continued daily for 4 days into fresh changed media until day 8 assessed as Liver stage (LS) activity by measuring radical cure mode by immunofluorescent staining analysis; format: toxicity, cell-based; settings: rhesus monkey, read-out: Selectivity Index
Plasmodium cynomolgi [2] = test: as §1, with “Antiplasmodial” for “Selectivity index, ratio of CC50 for Macaca mulatta hepatocytes to IC50 for antiplasmodial”, “hypnozoite” for “schizont”; format: functional, organism-based; settings: Hepatocyte
[3] = Cmax in male ICR-CD1 mouse liver at 40 mg/kg, po; format: ADME, organism-based
Plasmodium falciparum [4] = test: Antiplasmodial activity against asexual blood-stage (ABS) ATV-resistant clinical isolate Plasmodium falciparum Tm90-C2B infected in human erythrocytes assessed as reduction in fluorescence measured after 72 hrs by Malaria SYBR Green I-based Fluorescence (MSF) assay; format: functional, organism-based; settings: Erythrocyte
[5] = Mutagenicity in Salmonella typhimurium TA100 assessed as background reversion rate up to 10 uM with S-9 metabolic activation by AMES test; format: toxicity; settings: salmonella enterica subsp. enterica serovar typhimurium
Plasmodium cynomolgi [6] = test: as §1, with “Antiplasmodial” for “Selectivity index, ratio of CC50 for Macaca mulatta hepatocytes to IC50 for antiplasmodial”, “hypnozoite” for “schizont”, “prophylactic” for “radical cure”; format: functional, organism-based; settings: Hepatocyte
[7] = AUClast in male ICR-CD1 mouse liver at 40 mg/kg, po; format: ADME, organism-based
Plasmodium berghei [8] = test: In vivo antiplasmodial activity against luciferase expressing liver stage Plasmodium berghei ANKA MRA-868 sporozoites infected in Albino C57BL/6 mouse model assessed as protection at 10 mg/kg, po daily measured 24 to 72 hrs by real-time In Vivo Imaging System (IVIS); format: functional
[9] = as §1, with “hypnozoite” for “schizont”; format: toxicity, cell-based; settings: rhesus monkey, read-out: Selectivity Index
[10] = MRTlast in male ICR-CD1 mouse liver at 40 mg/kg, po; format: ADME, organism-based
[11] = Apparent oral clearance in male ICR-CD1 mouse liver at 40 mg/kg, po; format: ADME, organism-based
[12] = Toxicity in CF1 mouse infected with asexual blood-stage (ABS) Plasmodium yoelii MRA-428 assessed as clinical toxicity at 0.3 to 30 mg/kg, po treated 24 hrs post infection measured after 4 days; format: organism-based; settings: in vivo, dose 0.3-30 mg/kg
[13] = Tmax in male ICR-CD1 mouse liver at 40 mg/kg, po; format: ADME, organism-based
Plasmodium falciparum [14] = test: Antiplasmodial activity against asexual blood-stage (ABS) MDR Plasmodium falciparum Dd2 infected in human erythrocytes assessed as reduction in fluorescence measured after 72 hrs by Malaria SYBR Green I-based Fluorescence (MSF) assay; format: functional, organism-based; settings: Dd2, Erythrocyte
[15] = AUClast in male ICR-CD1 mouse plasma at 40 mg/kg, po; format: ADME, organism-based
[16] = Toxicity in CF1 mouse infected with asexual blood-stage (ABS) Plasmodium yoelii MRA-428 assessed as behavioural change at 0.3 to 30 mg/kg, po treated 24 hrs post infection measured after 4 days; format: organism-based; settings: in vivo, dose 0.3-30 mg/kg
Plasmodium berghei [17] = test: In vivo antiplasmodial activity against luciferase expressing liver stage Plasmodium berghei ANKA MRA-868 sporozoites infected in Albino C57BL/6 mouse model assessed as protection at 40 mg/kg, po daily measured 24 to 72 hrs by real-time In Vivo Imaging System (IVIS); format: functional; settings: time 24-72 hrs
[18] = Toxicity in CF1 mouse infected with asexual blood-stage (ABS) Plasmodium yoelii MRA-428 assessed as hunching at 0.3 to 30 mg/kg, po treated 24 hrs post infection measured after 4 days; format: organism-based; settings: in vivo, 96 h, dose 0.3-30 mg/kg, time 4 day
Plasmodium yoelii [19] = test: In vivo antiplasmodial activity against asexual blood-stage (ABS) Plasmodium yoelii MRA-428 infected in 4-day suppression CF1 mouse model assessed as reduction in parasitemia by measuring protection at 30 mg/kg, po treated 24 hrs post infection daily measured up to 28 days; format: functional, organism-based; settings: time <= 28.0 day
[20] = Toxicity in CF1 mouse infected with asexual blood-stage (ABS) Plasmodium yoelii MRA-428 assessed as lethargy at 0.3 to 30 mg/kg, po treated 24 hrs post infection measured after 4 days; format: organism-based; settings: in vivo, 96 h, dose 0.3-30 mg/kg, time 4 day
[21] = AUCextrap in male ICR-CD1 mouse liver at 40 mg/kg, po; format: ADME, organism-based
Hepatocyte = test: Cytotoxicity against Macaca mulatta hepatocytes assessed as cell viability measured after 48 hrs by MTT assay; format: toxicity, cell-based; settings: rhesus monkey, 48 h
[22] = Mutagenicity in Salmonella typhimurium TA98 assessed as background reversion rate up to 10 uM without S-9 metabolic activation by AMES test; format: toxicity; settings: salmonella enterica subsp. enterica serovar typhimurium
Plasmodium cynomolgi [23] = test: as §1, with “Antiplasmodial” for “Selectivity index, ratio of CC50 for Macaca mulatta hepatocytes to IC50 for antiplasmodial”, “prophylactic” for “radical cure”; format: functional, organism-based; settings: Hepatocyte
Plasmodium yoelii [24] = test: In vivo antiplasmodial activity against asexual blood-stage (ABS) Plasmodium yoelii MRA-428 infected in 4-day suppression CF1 mouse model assessed as reduction in parasitemia by measuring cured mouse at 100 mg/kg, po single dose treated 24 hrs post infection; format: functional, organism-based
Plasmodium falciparum [25] = test: Antiplasmodial activity against asexual blood-stage (ABS) CQ-sensitive Plasmodium falciparum D6 infected in human erythrocytes assessed as reduction in fluorescence measured after 72 hrs by Malaria SYBR Green I-based Fluorescence (MSF) assay; format: functional, organism-based; settings: D6, Erythrocyte
[26] = Cmax in male ICR-CD1 mouse plasma at 40 mg/kg, po; format: ADME, organism-based
[27] = as §1, with “hypnozoite” for “schizont”, “prophylactic” for “radical cure”; format: toxicity, cell-based; settings: rhesus monkey, read-out: Selectivity Index
[28] = Mutagenicity in Salmonella typhimurium TA98 assessed as background reversion rate up to 10 uM with S-9 metabolic activation by AMES test; format: toxicity; settings: salmonella enterica subsp. enterica serovar typhimurium
[29] = AUC(0 to infinity) in male ICR-CD1 mouse liver at 40 mg/kg, po; format: ADME, organism-based
[30] = MRTlast in male ICR-CD1 mouse plasma at 40 mg/kg, po; format: ADME, organism-based
HepG2 = test: Cytotoxicity against human HepG2 cells assessed as cell viability measured after 48 hrs by MTT assay; format: functional, cell-based; settings: HepG2, 48 h
[31] = Toxicity in CF1 mouse infected with asexual blood-stage (ABS) Plasmodium yoelii MRA-428 assessed as weight loss at 0.3 to 30 mg/kg, po treated 24 hrs post infection measured after 4 days; format: organism-based; settings: in vivo, 96 h, dose 0.3-30 mg/kg, time 4 day
[32] = Half life in male ICR-CD1 mouse liver at 40 mg/kg, po; format: ADME, organism-based
[33] = Toxicity in CF1 mouse infected with asexual blood-stage (ABS) Plasmodium yoelii MRA-428 assessed as ruffled hair at 0.3 to 30 mg/kg, po treated 24 hrs post infection measured after 4 days; format: organism-based; settings: in vivo, 96 h, dose 0.3-30 mg/kg, time 4 day
[34] = mouse, microsomes, 1 h

Row | SMILES | selectivity ratio at 96 h [1] | IC50 (Plasmodium cynomolgi [2]) [nM] | Cmax [3] [ng/mL] | IC50 (Plasmodium falciparum [4]) [nM] | Activity [5] | IC50 (Plasmodium cynomolgi [6]) [nM] | AUC(0-t) [7] [ng·h/mL] | selectivity ratio at 96 h [9] | MRT last [10] [h] | CL/F [11] [mL/min/kg] | Activity [12] | Tmax [13] [h] | IC50 (Plasmodium falciparum [14]) [nM] | AUC(0-t) [15] [ng·h/mL] | Activity [16] | Activity (Plasmodium berghei [17]) [%] | Activity [18] | Activity (Plasmodium yoelii [19]) | Activity [20] | AUC [21] [%] | other results
1 | O=c1c2c([nH]c3cc(Oc4ccc(OC(F)(F)F)cc4)ccc13)CCCC2 | 1.61 | 550 | 6080 | 0.295 | Non-toxic | 340 | 32900 | 1.11 | 5.16 | 0.542 | Non-toxic | 4 | 0.253 | 472 | Non-toxic | 100 | Non-toxic | Active; Out Of 4 - 3 Mouse Cured | Non-toxic | 0.12 | Activity (Plasmodium berghei [8]; time 24-72 hrs): 100%; CC50 (Hepatocyte): 610 nM; Activity [22]: Non-toxic; IC50 (Plasmodium cynomolgi [23]): 130 nM; Activity (Plasmodium yoelii [24]): Active; IC50 (Plasmodium falciparum [25]): 0.31 nM; Cmax [26]: 83 ng/mL; selectivity ratio at 96 h [27]: 1.79; Activity [28]: Non-toxic; AUC(0-inf) [29]: 33000 ng·h/mL; MRT last [30]: 4.1 h; IC50 (HepG2): 99.4 µM; Activity [31]: Non-toxic; half-life [32]: 170 min; Activity [33]: Non-toxic; CLH [34]: 117 µL/min/mg
2 | O=c1c2c([nH]c3cc(Oc4ccc(OC(F)(F)F)cc4)c(F)cc13)CCCC2 | 1.29 | 2080 | 654 | 0.384 | Non-toxic | 600 | 5470 | 1.49 | 5.64 | 3.58 | Non-toxic | 0.5 | 0.268 | 167 | Non-toxic | 100 | Non-toxic | Active; Out Of 4 - 3 Mouse Cured | Non-toxic | 0.603 | Activity (Plasmodium berghei [8]; time lower 24.0 hrs, time upper […]): Not active; Out Of 5 - 0 Mouse Cured; CC50 (Hepatocyte): 3110 nM; Activity [22]: Non-toxic; IC50 (Plasmodium cynomolgi [23]): 100 nM; Activity (Plasmodium yoelii [24]): Active; IC50 (Plasmodium falciparum [25]): 0.015 nM; Cmax [26]: 42.1 ng/mL; selectivity ratio at 96 h [27]: 5.18; Activity [28]: Non-toxic; AUC(0-inf) [29]: 5510 ng·h/mL; MRT last [30]: 2.95 h; IC50 (HepG2): > 200 µM; Activity [31]: Non-toxic; half-life [32]: 258 min; Activity [33]: Non-toxic; CLH [34]: 74.9 µL/min/mg
